In patent US6730699B2, “Water soluble paclitaxel derivatives” (priority 2001, dated 2004):
Like-named read-outs stand apart in the source and are kept apart here.

Columns and labels:
[1] = test system: ovarian OCa-l carcinoma
[2] = test system: SKOV3ipl human ovarian cancer cell line; assay: Human ovarian cancer i.p. in nude mice
[3] = Acute toxicity in 13762F tumor-bearing Fischer rats
[4] = test system: rat mammary tumor cell line 13762F; assay: Plating efficiency assay, 13762F cells; format: cell-based; conditions: 144 h, read-out: IC50 (50% inhibition of colony formation), 6 days of continuous exposure, approximate
[5] = in vivo; conditions: female, C3Hf/Kam, mouse, iv
[6] = 47 mg eq./kg + 14 Gy 24 h after PG-TXL
[7] = 80 mg eq./kg + 14 Gy 24 h after PG-TXL
[8] = 120 mg eq/kg + 14 Gy 24 h after PG-TXL
[9] = 120 mg eq/kg + 14 Gy 24 h prior to PG-TXL

Compound: Poly-Glutamic Acid-Paclitaxel [PG-TXL]
- Absolute growth delay [1, 6]: 18.2 days
- Days for tumor to grow from 8-14 mm (means ± SD) [1, 6]: 35.3 ± 4.7 days
- Normalized growth delay (means ± SD) [1, 6]: 15.5 ± 4.7 days
- Absolute growth delay ([1]; 47 mg eq./kg, no radiation): 2.7 days
- Days for tumor to grow from 8-14 mm (means ± SD) ([1]; 47 mg eq./kg, no radiation): 19.8 ± 0.98 days
- Absolute growth delay [1, 7]: 45.6 days
- Days for tumor to grow from 8-14 mm (means ± SD) [1, 7]: 62 ± 4.6 days
- Normalized growth delay (means ± SD) [1, 7]: 37.5 ± 4.6 days
- Absolute growth delay ([1]; 80 mg eq./kg, no radiation): 8.1 days
- Days for tumor to grow from 8-14 mm (means ± SD) ([1]; 80 mg eq./kg, no radiation): 25.3 ± 3.9 days
- Absolute growth delay [1, 8]: 98.4 days
- Normalized growth delay (means ± SD) [1, 8]: 85.9 ± 3.0 days
- Days for tumor to grow from 8-14 mm (means ± SD) ([1]; 120 mg eq/kg + 14 Gy 24 h after PG-TXL, regrown tumors only): 115 ± 3 days
- Absolute growth delay [1, 9]: 100.5 days
- Normalized growth delay (means ± SD) [1, 9]: 88 ± 1.2 days
- Days for tumor to grow from 8-14 mm (means ± SD) ([1]; 120 mg eq/kg + 14 Gy 24 h prior to PG-TXL, regrown tumors only): 117 ± 1.2 days
- Absolute growth delay ([1]; 120 mg eq/kg, no radiation): 12.5 days
- Days for tumor to grow from 8-14 mm (means ± SD) ([1]; 120 mg eq/kg, no radiation): 29.7 ± 3.2 days
- Ascites (incidence/mice with tumor) ([2]; 120 mg/kg, three injections): 3/7
- Mean vol of ascites (s.d.) ([2]; 120 mg/kg, three injections): 2.7 ± 1.4 mL
- Tumor take (incidence of tumor/mice injected) ([2]; 120 mg/kg, three injections): 7/8
- mice killed by a single injection ([2]; 160 mg/kg i.v., nude mice): 5 of the 10
- Ascites (incidence/mice with tumor) ([2]; 160 mg/kg, single dose): 0/3
- Body Weight Loss in % ([3]; 40 mg/kg single i.v.): 11.1%
- Time at Nadir ([3]; 40 mg/kg single i.v.): 6 days
- Time of Full Recovery ([3]; 40 mg/kg single i.v.): 11 days
- Body Weight Loss in % ([3]; 60 mg/kg single i.v.): 15.7%
- Time at Nadir ([3]; 60 mg/kg single i.v.): 7 days
- Time of Full Recovery ([3]; 60 mg/kg single i.v.): 14 days

Compound: CC(=O)O[C@H]1C(=O)[C@@]2(C)[C@H]([C@H](OC(=O)c3ccccc3)[C@]3(O)C[C@H](OC(=O)[C@H](O)[C@@H](NC(=O)c4ccccc4)c4ccccc4)C(C)=C1C3(C)C)[C@]1(OC(C)=O)CO[C@@H]1C[C@@H]2O [Paclitaxel, paclitaxel]
- IC50 [4]: ~2 nM
- MTD at 2 wk [5]: 80 mg/kg
- # of Toxic Death ([3]; 20 mg/kg single i.v.): 0/5
- Body Weight Loss in % ([3]; 20 mg/kg single i.v.): 17.0%
- Time at Nadir ([3]; 20 mg/kg single i.v.): 5 days
- # of Toxic Death ([3]; 40 mg/kg single i.v.): 0/3
- Body Weight Loss in % ([3]; 40 mg/kg single i.v.): 17.9%
- Time at Nadir ([3]; 40 mg/kg single i.v.): 6 days
- Time of Full Recovery ([3]; 40 mg/kg single i.v.): 16 days
- # of Toxic Death ([3]; 60 mg/kg single i.v.): 1/4
- Body Weight Loss in % ([3]; 60 mg/kg single i.v.): 16.7%
- Time at Nadir ([3]; 60 mg/kg single i.v.): 6 days
- Time of Full Recovery ([3]; 60 mg/kg single i.v.): 15 days
- MTD at 2 wk ([3]; female, Fischer 344, rat, in vivo): < 20 mg/kg
